Test results: patent US12421225B2, “Heteroaromatic amide derivative and medicament containing the same” (KAKEN PHARMACEUTICAL CO., LTD., priority 2018, dated 2025)

Experiments:
human Nav1.7 = human Nav1.7 (Homo sapiens (Human), UniProt Q15858); assay: Human Nav1.7 inhibitory activity evaluation (automated patch clamp QPatch16X, HEK293A cells stably expressing human Nav1.7 and human Navβ1); assay type: cell-based
Method in brief: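 QPatch16X whole-cell recordings at room temperature from HEK293A cells stably expressing human Nav1.7 with Navβ1, CsF-based internal solution, pH 7.4 external, 0.1% DMSO. From −100 mV holding, protocol included a 15 s hold at a potential inactivating ~30-40% of channels; IC50 from inward current at the second −10 mV pulse.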

human Nav1.5 = human Nav1.5 (Homo sapiens (Human), UniProt Q14524); assay: Human Nav1.5 inhibitory activity evaluation (automated patch clamp QPatch16X, HEK293 cells stably expressing human Nav1.5); assay type: cell-based
Sequence of human Nav1.5 (Q14524 whole entry): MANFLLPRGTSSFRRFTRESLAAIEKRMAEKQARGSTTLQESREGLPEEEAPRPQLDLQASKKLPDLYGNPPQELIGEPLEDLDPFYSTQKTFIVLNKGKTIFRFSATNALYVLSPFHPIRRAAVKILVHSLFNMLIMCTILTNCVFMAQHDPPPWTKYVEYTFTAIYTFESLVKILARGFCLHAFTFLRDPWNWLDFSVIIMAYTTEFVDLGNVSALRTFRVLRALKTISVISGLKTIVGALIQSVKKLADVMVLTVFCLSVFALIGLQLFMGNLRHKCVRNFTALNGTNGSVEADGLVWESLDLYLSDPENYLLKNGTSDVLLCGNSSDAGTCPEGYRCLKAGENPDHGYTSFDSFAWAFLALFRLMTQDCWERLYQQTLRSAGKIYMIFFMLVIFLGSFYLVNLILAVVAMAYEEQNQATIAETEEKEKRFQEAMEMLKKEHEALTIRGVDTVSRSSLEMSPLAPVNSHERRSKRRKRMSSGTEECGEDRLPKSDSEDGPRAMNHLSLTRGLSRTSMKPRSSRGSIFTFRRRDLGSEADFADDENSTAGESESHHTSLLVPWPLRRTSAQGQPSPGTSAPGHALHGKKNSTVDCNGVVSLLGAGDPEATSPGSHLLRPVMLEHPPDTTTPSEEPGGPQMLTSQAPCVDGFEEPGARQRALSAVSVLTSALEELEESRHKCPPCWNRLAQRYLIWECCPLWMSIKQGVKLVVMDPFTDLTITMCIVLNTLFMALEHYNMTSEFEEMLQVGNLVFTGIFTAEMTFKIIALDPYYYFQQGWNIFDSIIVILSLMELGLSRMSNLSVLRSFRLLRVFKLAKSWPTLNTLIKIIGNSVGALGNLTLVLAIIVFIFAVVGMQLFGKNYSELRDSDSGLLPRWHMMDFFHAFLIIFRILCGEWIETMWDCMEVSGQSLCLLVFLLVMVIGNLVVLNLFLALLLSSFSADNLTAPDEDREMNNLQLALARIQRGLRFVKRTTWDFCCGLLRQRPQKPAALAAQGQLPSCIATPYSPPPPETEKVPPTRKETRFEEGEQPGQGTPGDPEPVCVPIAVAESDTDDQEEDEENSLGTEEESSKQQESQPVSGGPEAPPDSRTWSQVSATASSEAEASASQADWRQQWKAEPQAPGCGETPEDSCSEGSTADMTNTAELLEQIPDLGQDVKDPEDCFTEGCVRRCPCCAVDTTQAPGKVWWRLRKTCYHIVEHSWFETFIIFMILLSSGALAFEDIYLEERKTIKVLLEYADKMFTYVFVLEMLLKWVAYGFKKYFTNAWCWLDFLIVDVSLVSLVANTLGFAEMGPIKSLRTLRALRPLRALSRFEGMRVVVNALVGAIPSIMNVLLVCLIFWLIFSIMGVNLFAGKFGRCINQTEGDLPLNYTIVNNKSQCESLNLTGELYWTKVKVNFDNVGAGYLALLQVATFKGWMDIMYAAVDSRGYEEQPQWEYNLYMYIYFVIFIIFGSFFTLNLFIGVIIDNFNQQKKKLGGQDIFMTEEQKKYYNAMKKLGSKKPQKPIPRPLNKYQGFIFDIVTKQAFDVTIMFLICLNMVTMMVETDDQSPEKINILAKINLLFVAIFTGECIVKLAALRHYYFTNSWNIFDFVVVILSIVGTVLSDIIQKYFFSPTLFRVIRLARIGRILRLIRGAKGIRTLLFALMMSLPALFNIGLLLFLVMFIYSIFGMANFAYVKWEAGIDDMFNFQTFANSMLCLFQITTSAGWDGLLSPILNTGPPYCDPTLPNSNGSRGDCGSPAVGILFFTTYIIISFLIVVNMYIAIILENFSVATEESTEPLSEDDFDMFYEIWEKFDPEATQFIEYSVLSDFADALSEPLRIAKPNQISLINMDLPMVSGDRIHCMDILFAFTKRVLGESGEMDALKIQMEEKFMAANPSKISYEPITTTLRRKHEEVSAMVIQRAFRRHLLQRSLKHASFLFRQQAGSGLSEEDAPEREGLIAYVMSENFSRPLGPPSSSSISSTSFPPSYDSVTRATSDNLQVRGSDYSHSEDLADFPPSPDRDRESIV
Procedure: Test Example 2: Human Nav1.5 Inhibitory Activity Evaluation
A cell line in which human Nav1.5 was stably expressed in HEK293 cells was used. DMEM supplemeted with 15% fetal bovine serum, 500 μg/ml geneticin, 100 units/ml penicillin, 100 μg/ml streptomycin, 20 mM HEPES was used as culture medium under the conditions of 37° C. and 5% CO2 in T175 flasks to carry out culturing. When 60-80% confluence was reached, a cell suspension of about 0.5-5.0×10^6 cells/mL was prepared. The amount of current through human Nav1.5 was recorded using a fully automatic patch clamp device QPatch16X at room temperature. As the extracellular solution, 145 mM NaCl, 4 mM KCl, 1 mM MgCl2, 2 mM CaCl2, 10 mM Glucose, and 10 mM HEPES at pH 7.4 was used. As the intracellular solution, 135 mM CsF, ⅕ mM EGTA/CsOH, 10 mM HEPES, and 10 mM NaCl at pH 7.3 was used. The test compounds were dissolved in DMSO and diluted with the extracellular solution to attend the DMSO concentration of 0.1% at the time of assay.
The current response was obtained at a sampling frequency of 25 kHz, and noise was removed with a 3 kHz low-pass filter. The holding potential was −80 mV. Correction of the leakage current was carried out by applying a step pulse of −100 mV before the test pulse. In order to investigate human Nav1.5 inhibitory effect of the test compound, test pulses imitating the action potential of cardiomyocytes were continuously given 20 times. The test pulses were given before and after the test compound addition.
The inhibitory activity of the test compound was determined based on the amount of inward current generated by the 20th depolarization pulse, and the 50% inhibitory concentration (IC50) was calculated from the concentration-response curve.

[1] = human Nav1.7, automated patch clamp
[2] = human Nav1.5, automated patch clamp
[3] = HEK293A cells stably expressing human Nav1.7 and human Navβ1, automated patch clamp QPatch16X
[4] = HEK293 cells stably expressing human Nav1.5, automated patch clamp QPatch16X

Sequence of human Nav1.7 (Q15858 whole entry): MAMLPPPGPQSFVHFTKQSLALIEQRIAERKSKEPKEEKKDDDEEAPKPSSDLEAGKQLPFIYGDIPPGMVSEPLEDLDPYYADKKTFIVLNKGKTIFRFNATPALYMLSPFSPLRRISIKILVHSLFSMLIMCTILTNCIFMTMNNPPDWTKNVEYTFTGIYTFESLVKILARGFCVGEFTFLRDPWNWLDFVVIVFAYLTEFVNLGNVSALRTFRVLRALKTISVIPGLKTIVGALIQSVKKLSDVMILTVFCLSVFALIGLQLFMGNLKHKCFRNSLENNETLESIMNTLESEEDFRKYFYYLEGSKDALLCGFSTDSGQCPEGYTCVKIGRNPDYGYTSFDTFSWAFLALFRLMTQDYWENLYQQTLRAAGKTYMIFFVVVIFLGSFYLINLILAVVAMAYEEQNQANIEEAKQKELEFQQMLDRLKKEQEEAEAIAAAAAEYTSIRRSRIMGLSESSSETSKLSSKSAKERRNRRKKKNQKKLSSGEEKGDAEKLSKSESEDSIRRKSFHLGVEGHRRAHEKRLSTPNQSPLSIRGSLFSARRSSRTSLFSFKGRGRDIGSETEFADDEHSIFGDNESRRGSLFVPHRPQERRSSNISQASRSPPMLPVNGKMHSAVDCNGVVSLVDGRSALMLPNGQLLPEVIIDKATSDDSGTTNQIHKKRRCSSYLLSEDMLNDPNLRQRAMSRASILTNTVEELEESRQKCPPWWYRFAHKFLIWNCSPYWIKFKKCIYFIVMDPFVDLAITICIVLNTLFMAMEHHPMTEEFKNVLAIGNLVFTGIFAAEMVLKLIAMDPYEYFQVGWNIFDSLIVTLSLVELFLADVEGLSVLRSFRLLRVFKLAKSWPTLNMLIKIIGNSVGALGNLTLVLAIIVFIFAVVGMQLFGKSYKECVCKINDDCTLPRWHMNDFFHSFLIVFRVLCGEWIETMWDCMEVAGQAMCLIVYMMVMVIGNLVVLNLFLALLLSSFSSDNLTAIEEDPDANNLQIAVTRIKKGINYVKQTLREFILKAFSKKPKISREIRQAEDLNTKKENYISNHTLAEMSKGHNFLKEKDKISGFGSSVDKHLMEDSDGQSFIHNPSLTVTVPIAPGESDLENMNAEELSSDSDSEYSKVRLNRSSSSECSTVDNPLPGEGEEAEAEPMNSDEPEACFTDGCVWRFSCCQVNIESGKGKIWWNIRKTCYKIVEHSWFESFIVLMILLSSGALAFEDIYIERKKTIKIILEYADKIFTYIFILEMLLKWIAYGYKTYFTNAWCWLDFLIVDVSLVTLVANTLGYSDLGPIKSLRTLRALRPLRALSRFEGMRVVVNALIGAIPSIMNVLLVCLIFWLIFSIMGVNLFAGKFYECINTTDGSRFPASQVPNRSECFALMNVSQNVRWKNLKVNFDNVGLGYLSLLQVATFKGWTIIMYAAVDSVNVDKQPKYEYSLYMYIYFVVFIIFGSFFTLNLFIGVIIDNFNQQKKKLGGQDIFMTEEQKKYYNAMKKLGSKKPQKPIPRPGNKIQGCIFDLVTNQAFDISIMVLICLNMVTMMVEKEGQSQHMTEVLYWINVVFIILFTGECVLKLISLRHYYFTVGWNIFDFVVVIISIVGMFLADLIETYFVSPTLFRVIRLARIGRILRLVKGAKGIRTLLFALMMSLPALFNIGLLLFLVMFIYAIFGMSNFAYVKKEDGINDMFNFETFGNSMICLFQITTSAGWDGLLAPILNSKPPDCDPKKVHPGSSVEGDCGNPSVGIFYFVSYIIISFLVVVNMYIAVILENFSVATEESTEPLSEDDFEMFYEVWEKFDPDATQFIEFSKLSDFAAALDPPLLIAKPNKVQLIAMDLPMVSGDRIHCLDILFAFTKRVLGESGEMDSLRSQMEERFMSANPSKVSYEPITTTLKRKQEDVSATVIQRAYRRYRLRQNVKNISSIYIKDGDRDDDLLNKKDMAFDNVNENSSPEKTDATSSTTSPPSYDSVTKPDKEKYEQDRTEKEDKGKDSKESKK
Sequence of human Nav1.7 (Q07699 19-218 partner): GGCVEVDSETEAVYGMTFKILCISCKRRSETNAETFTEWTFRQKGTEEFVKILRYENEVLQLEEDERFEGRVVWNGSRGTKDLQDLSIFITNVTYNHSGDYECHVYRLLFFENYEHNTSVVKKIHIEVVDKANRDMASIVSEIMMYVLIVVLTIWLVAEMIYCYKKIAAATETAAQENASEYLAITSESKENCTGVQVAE

Row | SMILES | IC50 (human Nav1.7; [1]) [nM] | IC50 (human Nav1.5; [2]) [nM] | IC50 (human Nav1.7; [3]) [nM] | IC50 (human Nav1.5; [4]) [nM]
1 | N#Cc1ccc2c(c1)C[C@@H](NC(=O)c1cc3n(n1)CCN(Cc1ccc(F)cc1)C3)CO2 [Example 268, (R)—N-(6-cyanochroman-3-yl)-5-(4-fluorobenzyl)-4,5,6,7-tetrahydropyrazolo[1,5-a]pyrazine-2-carboxamide] | < 1000 | ≥ 3000 | – | –
2 | O=C(N[C@H]1COc2ccc(COCC(F)(F)F)cc2C1)c1cc2n(n1)CC(COCC1CC1)O2 (stereo partly shown) [Example 185] | < 1000 | ≥ 3000 | – | –
3 | COc1ncc(-c2ccc3c(c2)C[C@@H](NC(=O)c2cc4n(n2)CC(COCC2CC2)O4)CO3)cn1 (stereo partly shown) [Example 468] | < 1000 | ≥ 3000 | – | –
4 | O=C(N[C@H]1COc2ccccc2C1)c1cc2n(n1)CCN(CC(F)(F)C(F)(F)F)C2 [Example 487] | < 1000 | 1000 to 3000 | – | –
5 | O=C(N[C@H]1COc2ccc(COCC(F)(F)F)cc2C1)c1cc2n(n1)CCN(CCOC1CCC1)C2 [Example 266] | < 1000 | ≥ 3000 | – | –
6 | O=C(N[C@H]1COc2ccc(-c3cccnc3)cc2C1)c1cc2n(n1)CCN(c1ccc(F)cc1)C2 [Example 279] | < 1000 | ≥ 3000 | – | –
7 | Cn1cc(-c2ccc3c(c2)C[C@@H](NC(=O)c2cc4n(n2)CC(CCOC(F)F)O4)CO3)cn1 (single isomer, unassigned) [221 (isomer B)] | < 1000 | 1000 to 3000 | – | –
8 | O=C(NC1COc2cccc(Cl)c2C1)c1cn2c(n1)CCC(C(F)(F)F)C2 (stereo not shown) [Example 8] | – | – | < 1000 | ≥ 3000
9 | O=C(NC1COc2cccc(Br)c2C1)c1cc2n(n1)CCC(c1ccccc1)O2 (stereo not shown) [Example 353] | < 10000 | ≥ 3000 | – | –
10 | O=C(N[C@H]1COc2ccc(Cl)cc2C1)c1cc2n(n1)CC(CCNCC(F)(F)F)O2 (single isomer, unassigned) [226 (isomer B)] | < 1000 | 1000 to 3000 | – | –
11 | Cn1ncc(-c2ccc3c(c2)C[C@@H](NC(=O)c2cc4n(n2)CCC(COCC2CC2)O4)CO3)n1 (stereo partly shown) [Example 429] | < 10000 | ≥ 3000 | – | –
12 | Cn1ccc(-c2ccc3c(c2)C[C@@H](NC(=O)c2cc4n(n2)CC(CCSCC(F)(F)F)O4)CO3)n1 (stereo partly shown) [Example 457] | < 1000 | ≥ 3000 | – | –
13 | O=C(N[C@H]1COc2ccc(COCC(F)(F)F)cc2C1)c1cc2n(n1)CC(CCOC(F)F)O2 (single isomer, unassigned) [215 (isomer A)] | < 1000 | 1000 to 3000 | – | –
14 | O=C(N[C@H]1COc2ccc(CC(F)F)cc2C1)c1cc2n(n1)CC(CCOC(F)F)O2 (single isomer, unassigned) [219 (isomer B)] | < 1000 | 1000 to 3000 | – | –
15 | O=C(N[C@H]1COc2ccc(COCC(F)(F)F)cc2C1)c1cc2n(n1)CC(COC(F)(F)F)O2 (single isomer, unassigned) [196 (isomer A)] | < 1000 | 1000 to 3000 | – | –
16 | N#Cc1ccc2c(c1)C[C@@H](NC(=O)c1cc3n(n1)CCC(COCC1CC1)O3)CO2 (single isomer, unassigned) [103 (isomer B)] | – | – | < 10000 | ≥ 3000
17 | CC(C)(C)CCC1Cn2cc(C(=O)N[C@H]3COc4ccccc4C3)nc2CN1 (stereo partly shown) [Example 328] | < 10000 | 1000 to 3000 | – | –
18 | O=C(N[C@H]1COc2ccccc2C1)c1cn2c(n1)CNC(CCCc1ccccc1)C2 (stereo partly shown) [Example 55] | – | – | < 1000 | 1000 to 3000
19 | CN1Cc2nc(C(=O)N[C@H]3COc4cccc(F)c4C3)cn2CC1c1cccc(C(F)(F)F)n1 (stereo partly shown) [Example 47] | – | – | < 10000 | ≥ 3000
20 | N#Cc1ccc2c(c1)C[C@@H](NC(=O)c1cc3n(n1)CCC(c1ccccc1C#N)O3)CO2 (stereo partly shown) [Example 72] | – | – | < 1000 | ≥ 3000
